The text below walks through data of US20260374773A1, “MULTI-CYCLIC IRAK AND FLT3 INHIBITING COMPOUNDS AND USES THEREOF” (CHILDREN'S HOSPITAL MEDICAL CENTER, priority 2022, published 2026).

In one assay the target is T1, FLT3 D835H (Homo sapiens, UniProt P36888, D835H).
T1 sequence (P36888 27-993 D835H): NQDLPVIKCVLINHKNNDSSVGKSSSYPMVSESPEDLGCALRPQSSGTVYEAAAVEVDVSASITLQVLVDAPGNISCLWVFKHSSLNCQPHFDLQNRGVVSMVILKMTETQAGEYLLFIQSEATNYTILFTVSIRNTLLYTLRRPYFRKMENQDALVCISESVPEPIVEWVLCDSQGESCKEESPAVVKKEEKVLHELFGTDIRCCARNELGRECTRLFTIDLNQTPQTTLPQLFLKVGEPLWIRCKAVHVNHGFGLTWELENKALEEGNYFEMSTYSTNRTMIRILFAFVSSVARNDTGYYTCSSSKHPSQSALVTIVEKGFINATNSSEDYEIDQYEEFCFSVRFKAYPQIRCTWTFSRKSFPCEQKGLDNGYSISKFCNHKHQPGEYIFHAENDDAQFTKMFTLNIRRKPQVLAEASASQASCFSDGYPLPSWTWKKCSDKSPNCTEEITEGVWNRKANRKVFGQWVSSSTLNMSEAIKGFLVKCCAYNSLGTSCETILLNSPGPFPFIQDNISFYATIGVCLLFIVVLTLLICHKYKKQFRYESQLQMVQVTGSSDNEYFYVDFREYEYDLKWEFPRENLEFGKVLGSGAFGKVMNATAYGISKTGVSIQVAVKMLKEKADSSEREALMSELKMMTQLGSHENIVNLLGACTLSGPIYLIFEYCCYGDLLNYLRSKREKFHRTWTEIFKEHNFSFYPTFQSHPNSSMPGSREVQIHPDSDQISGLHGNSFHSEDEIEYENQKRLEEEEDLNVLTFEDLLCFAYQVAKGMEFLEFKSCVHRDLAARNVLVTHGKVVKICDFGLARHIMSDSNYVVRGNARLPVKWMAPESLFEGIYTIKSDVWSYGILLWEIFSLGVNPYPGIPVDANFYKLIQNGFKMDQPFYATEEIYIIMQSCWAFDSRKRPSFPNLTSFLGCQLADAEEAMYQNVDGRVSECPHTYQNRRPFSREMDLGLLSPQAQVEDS
The experiment in a line: DiscoverX KINOMEscan active site-directed competition binding, FLT3 D835H. The conditions noted are these: Table 12; no ATP.
Text: (§1) Kinase binding data were obtained for various exemplary compounds prepared according to Examples 1-8 using the DiscoverX KINOMEscan® active site-directed competition binding site-directed assay protocol described below. […] As a result, the data report thermodynamic interaction affinities (Kd values), rather than IC50 values that are dependent on ATP concentrations. The assay uses a DNA-tagged version of the protein kinase, and an immobilized ligand bound to a solid support. Compounds that directly or indirectly prevent kinase binding to the immobilized ligand reduce the amount of kinase captured on the solid support, which is detected using an ultra-sensitive qPCR method. Affinity constants reported from the assay have been reported to be independent of the immobilized ligand used that is coupled to the solid support (See supplemental information in Fabian, M. A. et. al., (2005) Nat. Biotechnol. 23, 329-336; Wodicka, L. M. et. al., (2010) Chem. Biol. 17, 1241-1249.)
Kinase-tagged T7 phage strains were prepared in an E. coli host derived from the BL21 strain. E. coli were grown to log-phase and infected with T7 phage and incubated with shaking at 32 °C until lysis. The lysates were centrifuged and filtered to remove cell debris. The remaining kinases were produced in HEK-293 cells and subsequently tagged with DNA for qPCR detection. Streptavidin-coated magnetic beads were treated with biotinylated small molecule ligands for 30 minutes at room temperature to generate affinity resins for kinase assays. The liganded beads were blocked with excess biotin and washed with blocking buffer (SeaBlock (Pierce), 1% BSA, 0.05% Tween 20, 1 mM DTT) to remove unbound ligand and to reduce non-specific binding. […] Test compounds were prepared as 111x stocks in 100% DMSO. Kds were determined using an 11-point 3-fold compound dilution series with three DMSO control points. All compounds for Kd measurements are distributed by acoustic transfer (non-contact dispensing) in 100% DMSO. The compounds were then diluted directly into the assays such that the final concentration of DMSO was 0.9%. All reactions were performed in polypropylene 384-well plates. Each was a final volume of 0.02 mL. The assay plates were incubated at room temperature with shaking for 1 hour and the affinity beads were washed with wash buffer (1×PBS, 0.05% Tween 20). The beads were then re-suspended in elution buffer (1×PBS, 0.05% Tween 20, 0.5 μM nonbiotinylated affinity ligand) and incubated at room temperature with shaking for 30 minutes. The kinase concentration in the eluates was measured by qPCR. Binding constants (Kds) were calculated with a standard dose-response curve using the Hill equation. The Hill Slope was set to −1. Curves were fitted using a non-linear least square fit with the Levenberg-Marquardt algorithm.
as §1, with “9-12” for “1-8”
Kinase-tagged T7 phage strains were prepared in an E. coli host derived from the BL21 strain. […]
The term Kd denotes the equilibrium constant for the complex coming apart. Read a high Kd as a looser complex. Turning to `COc1cn2ncc(-c3nc(N[C@H]4CNCC[C@@H]4F)c(C#N)cc3F)c2nc1C(C)(C)O` [Compound 10, 5-fluoro-2-(((3S,4S)-4-fluoropiperidin-3-yl)amino)-6-(5-(2-hydroxypropan-2-yl)-6-methoxypyrazolo[1,5-a]pyrimidin-3-yl)nicotinonitrile], the equilibrium dissociation constant (Kd) is 0.2 nM. On the same count and under the same terms, for `COc1cn2ncc(-c3nc(N[C@H]4CNCC[C@@H]4F)c(C#N)cc3F)c2nc1C1CC1` [Compound 7, 6-(5-cyclopropyl-6-methoxypyrazolo[1,5-a]pyrimidin-3-yl)-5-fluoro-2-(((3S,4S)-4-fluoropiperidin-3-yl)amino)nicotinonitrile] the value was 0.18 nM; for `COc1cn2ncc(-c3nc(N[C@H]4CNCC[C@@H]4F)c(F)cc3F)c2nc1C(C)(C)O` [Compound 13, 2-(3-(3,5-difluoro-6-(((3S,4S)-4-fluoropiperidin-3-yl)amino)pyridin-2-yl)-6-methoxypyrazolo[1,5-a]pyrimidin-5-yl)propan-2-ol], under 0.17 nM.

The same assay, now with this note: Table 18; no ATP.
Turning to `COc1cn2ncc(-c3nc(N[C@@H]4CCCNC4)ncc3F)c2nc1C1CC1` [Compound 14a, (R)-4-(5-cyclopropyl-6-methoxypyrazolo[1,5-a]pyrimidin-3-yl)-5-fluoro-N-(piperidin-3-yl)pyrimidin-2-amine], binding was characterised by a dissociation constant (Kd) of 0.2 nM. On to `COc1cn2ncc(-c3nc(N[C@H]4CNCC[C@@H]4F)ncc3F)c2nc1C(C)(C)O` [Compound 6a, 2-(3-(5-fluoro-2-(((3S,4S)-4-fluoropiperidin-3-yl)amino)pyrimidin-4-yl)-6-methoxypyrazolo[1,5-a]pyrimidin-5-yl)propan-2-ol], for which binding was put at a Kd of 0.25 nM. The same measure, in the same setting: for `COc1cn2ncc(-c3nc(N[C@H]4CNCC[C@@H]4F)ncc3F)c2nc1C1CC1` [Compound 15a, 4-(5-cyclopropyl-6-methoxypyrazolo[1,5-a]pyrimidin-3-yl)-5-fluoro-N-((3S,4S)-4-fluoropiperidin-3-yl)pyrimidin-2-amine] the value was 0.37 nM. Compound `COc1cn2ncc(-c3cncc(N[C@H]4CNCC[C@@H]4F)n3)c2nc1C1CC1` [Compound 12a, 6-(5-cyclopropyl-6-methoxypyrazolo[1,5-a]pyrimidin-3-yl)-N-((3S,4S)-4-fluoropiperidin-3-yl)pyrazin-2-amine] returned a Kd of 0.54 nM. Still for that read-out and setting: for `COc1cn2ncc(-c3ccnc(N[C@H]4CNCC[C@@H]4F)n3)c2nc1C1CC1` [Compound 7a, 4-(5-cyclopropyl-6-methoxypyrazolo[1,5-a]pyrimidin-3-yl)-N-((3S,4S)-4-fluoropiperidin-3-yl)pyrimidin-2-amine] the value was 1.2 nM.
